Common to all, as to test: Kinase panel profiling at 1 µmol/L (MSA or IMAP), percentage inhibition
Holding throughout (format): biochemical

Assay [1] concerns the target T1, panel of 255 wild-type kinases (Homo sapiens, UniProt O15146).
T1 sequence (O15146 24-869): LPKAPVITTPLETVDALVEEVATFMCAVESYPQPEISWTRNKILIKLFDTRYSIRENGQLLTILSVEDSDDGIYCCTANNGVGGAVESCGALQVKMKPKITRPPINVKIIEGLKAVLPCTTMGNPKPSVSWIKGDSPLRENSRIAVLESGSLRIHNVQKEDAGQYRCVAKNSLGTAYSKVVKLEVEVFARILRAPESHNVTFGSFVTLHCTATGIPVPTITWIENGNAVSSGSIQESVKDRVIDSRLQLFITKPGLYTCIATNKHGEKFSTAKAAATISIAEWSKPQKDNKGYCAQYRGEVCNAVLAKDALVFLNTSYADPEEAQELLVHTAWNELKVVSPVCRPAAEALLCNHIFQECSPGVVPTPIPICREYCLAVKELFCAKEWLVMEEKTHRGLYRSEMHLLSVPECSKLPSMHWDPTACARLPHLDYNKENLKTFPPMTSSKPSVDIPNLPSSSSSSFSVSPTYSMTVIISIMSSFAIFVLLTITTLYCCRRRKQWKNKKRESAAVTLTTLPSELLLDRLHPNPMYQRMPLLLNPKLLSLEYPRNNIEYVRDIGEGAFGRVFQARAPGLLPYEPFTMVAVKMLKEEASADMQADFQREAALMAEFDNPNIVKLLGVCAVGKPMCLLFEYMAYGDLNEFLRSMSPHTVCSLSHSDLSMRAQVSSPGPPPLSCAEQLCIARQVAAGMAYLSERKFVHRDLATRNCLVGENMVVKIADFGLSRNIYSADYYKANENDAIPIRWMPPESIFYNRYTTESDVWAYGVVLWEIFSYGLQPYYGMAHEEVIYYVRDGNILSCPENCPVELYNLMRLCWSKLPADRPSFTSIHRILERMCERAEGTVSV
Particulars: MUSK; 1 µmol/L single concentration; read-out: %-inhibition, MUSK.

Assay [2] concerns the target T2, panel of 255 wild-type kinases (Homo sapiens, UniProt P54753).
T2 sequence (P54753 34-998): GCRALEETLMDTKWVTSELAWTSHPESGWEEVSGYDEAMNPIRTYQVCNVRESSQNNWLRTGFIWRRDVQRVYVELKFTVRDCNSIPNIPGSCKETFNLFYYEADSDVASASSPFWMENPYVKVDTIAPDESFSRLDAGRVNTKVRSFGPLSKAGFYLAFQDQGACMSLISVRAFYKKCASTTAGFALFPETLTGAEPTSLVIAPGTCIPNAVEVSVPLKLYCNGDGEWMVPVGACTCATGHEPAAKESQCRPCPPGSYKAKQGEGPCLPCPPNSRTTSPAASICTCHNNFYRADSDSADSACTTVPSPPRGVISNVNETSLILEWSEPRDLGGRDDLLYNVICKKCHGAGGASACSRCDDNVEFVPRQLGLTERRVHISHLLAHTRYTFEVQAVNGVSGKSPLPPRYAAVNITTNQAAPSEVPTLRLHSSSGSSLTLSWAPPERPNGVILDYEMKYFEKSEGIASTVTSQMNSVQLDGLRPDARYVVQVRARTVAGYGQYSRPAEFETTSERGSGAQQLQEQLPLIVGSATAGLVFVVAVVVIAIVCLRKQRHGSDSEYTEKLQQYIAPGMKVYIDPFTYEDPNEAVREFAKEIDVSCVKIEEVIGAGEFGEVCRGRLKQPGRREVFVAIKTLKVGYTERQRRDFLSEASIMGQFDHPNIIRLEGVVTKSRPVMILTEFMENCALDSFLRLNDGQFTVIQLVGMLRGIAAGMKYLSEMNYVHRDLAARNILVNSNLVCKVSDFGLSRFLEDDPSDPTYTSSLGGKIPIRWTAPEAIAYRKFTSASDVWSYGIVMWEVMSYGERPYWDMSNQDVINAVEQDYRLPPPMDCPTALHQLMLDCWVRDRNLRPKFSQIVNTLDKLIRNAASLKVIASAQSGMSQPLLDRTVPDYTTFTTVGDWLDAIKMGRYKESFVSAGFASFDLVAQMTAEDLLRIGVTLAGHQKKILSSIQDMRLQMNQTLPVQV
Particulars: kinase EPHB3; 1 µmol/L single concentration; read-out: %-inhibition at 1 µmol/L, EPHB3.

For assay [3], the target named is panel of 255 wild-type kinases (Homo sapiens, UniProt Q13882). Particulars: BRK kinase assay; 1 µmol/L single concentration; read-out: %-inhibition BRK.
Assay [4] concerns the target panel of 255 wild-type kinases (Homo sapiens, UniProt P09769). Particulars: kinase FGR; 1 µmol/L single concentration; read-out: %-inhibition at 1 µmol/L, FGR.
In assay [5] the target is panel of 255 wild-type kinases (Homo sapiens, UniProt P05771). Particulars: kinase PKCβ1; 1 µmol/L single concentration; read-out: %-inhibition at 1 µmol/L, PKCβ1.
The test system of assay [6] is panel of 255 wild-type kinases. Particulars: 1 µmol/L single concentration; for %-inhibition at 1 µmol/L, FYN [isoform b]: kinase FYN [isoform b]; for %-inhibition at 1 µmol/L, LYNb: kinase LYNb; for %-inhibition at 1 µmol/L, PKCβ2: kinase PKCβ2; for %-inhibition at 1 µmol/L, SRM: kinase SRM.

From publication PMC9516332 (Frontiers in Oncology, 2022) come the findings set out here.

Consider `Cc1cc(Nc2ncnc3ccc(NC4=NC(C)(C)CO4)cc23)ccc1Oc1ccn2ncnc2c1` [tucatinib], for which the inhibition at 1 µM in assay [1] was 2.26%; in assay [2], -5.68%; in assay [3], 8%; in assay [4] it was 6%; in assay [5], 0.869%. Besides, the “%-inhibition at 1 µmol/L, FYN [isoform b]” value in assay [6] was -1.06%. Also, the “%-inhibition at 1 µmol/L, LYNb” value in assay [6] came to 6%. Further, the “%-inhibition at 1 µmol/L, PKCβ2” value in assay [6] is -1.5%. In addition, in assay [6], the “%-inhibition at 1 µmol/L, SRM” value was 2.77%.
For the compound `C=CC(=O)N1CCC([C@@H]2CCNc3c(C(N)=O)c(-c4ccc(Oc5ccccc5)cc4)nn32)CC1` [zanubrutinib], the inhibition at 1 µM in assay [1] was -1.31%; in assay [2] it was -1.32%; in assay [3], 99%; in assay [4] it was 37%; in assay [5], 0.363%. Besides, the “%-inhibition at 1 µmol/L, FYN [isoform b]” value in assay [6] was 22%. In addition, the “%-inhibition at 1 µmol/L, LYNb” value in assay [6] is listed as 55%. Moreover, the “%-inhibition at 1 µmol/L, PKCβ2” value in assay [6] was -1.66%. Besides, in assay [6], the “%-inhibition at 1 µmol/L, SRM” value is reported as 58%.
